Measurements from ChEMBL document CHEMBL1147822, “One-pot synthesis and SAR study of cis-2,6-dialkyl-4-chloro-tetrahydropyrans” (2006).

How the values were obtained:
Format in all cases: functional
A2780 = assay: Antiproliferative activity against human A2780 cells; conditions: for CC50: read-out: LC50 (the source's name)
SW1573 = assay: Antiproliferative activity against human SW1573 cells; conditions: for CC50: read-out: LC50 (the source's name)
WiDr = assay: Antiproliferative activity against human WiDr cells

Row | SMILES | GI50 (A2780) [µM] | TGI (A2780) [µM] | CC50 (A2780) [µM] | GI50 (SW1573) [µM] | TGI (SW1573) [µM] | GI50 (WiDr) [µM] | LC50 (lethal concentration, 50% net cell kill) (WiDr) [µM] | TGI (WiDr) [µM] | CC50 (SW1573) [µM]
1 | COc1ccc([C@@H]2C[C@H](Cl)C[C@H](CC(C)C)O2)cc1 | 25 | 57 | 95 | 30 | 80 | 36 | 95 | 73 | 
2 | CC(C)C[C@H]1C[C@@H](Cl)C[C@@H](C2CCCCC2)O1 | 20 | 38 | 73 | 22 | 43 | 26 |  | 63 | 82
3 | CC(C)C[C@H]1C[C@@H](Cl)C[C@@H](c2ccccc2)O1 | 17 | 35 | 72 | 24 | 48 | 39 |  | 88 | 90
4 | O=[N+]([O-])c1ccc([C@H]2C[C@@H](Cl)CCO2)cc1 | > 100 |  |  | > 100 |  | > 100 |  |  | 
5 | CC(C)C[C@H]1C[C@@H](Cl)C[C@@H](C)O1 | > 100 |  |  | > 100 |  | > 100 |  |  | 
6 | CC(C)C[C@@H]1C[C@H](Cl)C[C@H](CC(C)C)O1 | 63 | 90 |  | 67 | 89 | > 100 |  |  | 
7 | Cl[C@H]1CCO[C@@H](c2ccccc2)C1 | > 100 |  |  | > 100 |  | > 100 |  |  | 
8 | CC(C)C[C@H]1C[C@@H](Cl)CCO1 | > 100 |  |  | > 100 |  | > 100 |  |  | 
9 | CC(C)C[C@H]1C[C@@H](Cl)C[C@@H](c2ccc([N+](=O)[O-])cc2)O1 | 21 | 64 |  | 30 |  | 38 |  |  | 
